Values joined by “and” are separate entries in the source; they are usually repeats but may differ in a detail not shown here. Equal values may be shown once. Read-outs that look alike come from different tables or passages of the source.
How the values were obtained:
[1] = tested on: osteoclasts cultured on bone slices; test: In vitro bone resorption assay (osteoclasts on bovine bone slices, CrossLaps); format: cell-based, rat; settings: for Relative medium CrossLaps amounts per osteoclast, replicates 1-6 / Relative medium CrossLaps amounts per osteoclast, Mean ± SD: first bone resorption assay; for Relative medium CrossLaps amounts per osteoclast, replicates 1-6 / Relative medium CrossLaps amounts per osteoclast, Mean ± SD / Relative medium CrossLaps amounts per osteoclasts, Mean ± SD / Relative medium CrossLaps amounts per osteoclasts, replicates 1-6: relative to mean of baseline group, 72 hours; for Relative medium CrossLaps amounts per osteoclast, replicates 1-6: LA number = ng/ml lanthanum in culture medium; for Relative medium CrossLaps amounts per osteoclast, replicates 1-6 / Relative medium CrossLaps amounts per osteoclast, Mean ± SD / Relative medium CrossLaps amounts per osteoclasts, Mean ± SD / Relative medium CrossLaps amounts per osteoclasts, replicates 1-6 / Combined results on bone resorption (relative medium CrossLaps per osteoclast), Mean ± SD: Control = Baseline+10 nM bafilomycin Al; for Relative medium CrossLaps amounts per osteoclast, Mean ± SD / Relative medium CrossLaps amounts per osteoclasts, Mean ± SD / Relative medium CrossLaps amounts per osteoclasts, replicates 1-6 / Combined results on bone resorption (relative medium CrossLaps per osteoclast), Mean ± SD / Effect on bone resorption / bone resorbing activity of mature osteoclasts, in words: LA number = ng/ml lanthanum; for Relative medium CrossLaps amounts per osteoclasts, Mean ± SD / Relative medium CrossLaps amounts per osteoclasts, replicates 1-6: second bone resorption assay; for Combined results on bone resorption (relative medium CrossLaps per osteoclast), Mean ± SD: tables 1 and 2 combined, number 12; for Bone resorption: significance of activation/inhibition vs baseline; for Effect on bone resorption / bone resorbing activity of mature osteoclasts, in words: lanthanum (III) ion = any of the concentrations tested (100-15000 ng/ml), bafilomycin Al 10 nM
Source text: The method of osteoclast culture on bone slices was originally described by Boyde et al. (1984) and by Chambers et al. (1984). For cell culture, we used a method slightly modified from the original methods (Lakkakorpi et al. 1989, Lakkakorpi and Väänänen, 1991). The rate of bone resorption in the cultures was originally determined by counting the number of resorption pits on each bone or dentine slice using a microscope with phase contrast objectives (Sundquist et al. 1990). Later, the pits were visualized using Wheat Germ Agglutinin lectin that specifically binds to the resorbed area in bone (Selander et al. 1994), making it possible to quantify the total resorbed area using a microscope and computer-assisted image analysis system (Laitala and Väänänen 1994, Hentunen et al. 1995). We used a commercially available method (CrossLaps for cultures, Osteometer Biotech, Herlev, Denmark) to detect the amount of collagen cross-links released into the culture medium as an index of the bone resorption rate (Bagger et al., 1999).
The study protocol uses a method where osteoclasts are cultured on bone slices and allowed to resorb bone. The system is ideal for determining the effect of drug candidates on the bone resorbing activity of osteoclasts. Drug candidates are added into the cell cultures at the beginning of the culture period, and the osteoclasts allowed to resorb bone for 3 days. The amount of bone resorbed during the culture period is determined and compared to the amount of bone resorbed in control cultures (those cultured in the absence of drug candidates).
Transverse 0.1 mm thick slices of cortical bone were cut from the diaphysis of fresh bovine femurs (Atria Slaughterhouse, Oulu, Finland) using a low-speed diamond saw, cleaned by ultrasonication in multiple changes of sterile distilled water, and stored at 4° C. before use. Long bones were removed from 1-day-old rat pups killed by decapitation. […] The resulting suspension of dispersed cells and bone fragments was agitated using a plastic pipette. Larger fragments were allowed to sediment for a few seconds and the supernatant was seeded onto the bone slices pre-wetted in the medium. After a settling period of 30 minutes at 37° C., the bone slices were washed by dipping in fresh medium, and then transferred to wells in 24-well culture dishes containing osteoclast culture medium. The bone slices were incubated in a humidified atmosphere of 95% air and 5% carbon dioxide at 37° C. for 72 hours.
After the culture period, the amount of bone resorption was determined by measuring the amount of collagen cross-links released into the culture medium using a commercial kit (CrossLaps for cultures, Osteometer Biotech) according to the manufacturer s instructions. The number of osteoclasts in each culture was determined by microscopic counting of the amount of TRAP-positive multinuclear cells, and the results are given as the number of collagen cross-links released per one osteoclast.
In the bone resorption assay, the amount of medium CrossLaps (nM) released into the culture medium was determined and the number of osteoclasts in the corresponding cultures calculated. The medium CrossLaps amounts were divided with the osteoclast numbers in the corresponding cultures, and the results are given on Table 1 as relative medium CrossLaps amounts per osteoclasts. The relative values were obtained by dividing each individual value with the mean value of the baseline group.

[2] = tested on: osteoclast precursors in mouse bone marrow; settings: for Effect on osteoclast differentiation, in words: vs baseline with 1,25-dihydroxyvitamin D3; for Relative TRAP 5b activities, Mean ± SD: relative to mean of baseline group; for Combined results on osteoclast differentiation (relative TRAP 5b activity), Mean ± SD: tables 4-6 combined, number 18 (LA 100) or 12; for Osteoclast differentiation: significance of activation/inhibition vs baseline
Source text: A method known as mouse bone marrow culture system is the one most widely used to study osteoclast differentiation. Originally, this method was developed by Takahashi et al. (1988a). Osteoclast precursors in mouse bone marrow can be induced to form multinucleated osteoclast-like cells (MNC) in the presence of either an active metabolite of vitamin D3 (1,25(OH)2D3) or parathyroid hormone (PTH). […] They form pits on bone or dentine slices (Takahashi et al. 1988a, Hattersley and Chambers 1989, Shinar et al. 1990); they express high levels of tartrate-resistant acid phosphatase (TRAP) and calcitonin receptors (Takahashi et al. 1988b, Shinar et al. 1990); and they respond to calcitonin (Takahashi et al. 1988a) and prostaglandin E2 (Collins and Chambers 1992). Thus, the method is an ideal one with which to study both stimulators and inhibitors of osteoclast differentiation.
In the original culture system, the osteoclast formation was determined after an 8-day culture. In bone marrow, both non-adherent osteoclast precursors and stromal cells are present, the latter of which are needed to support osteoclast formation. The number of osteoclasts formed is generally determined by counting the number of TRAP-positive MNC containing at least three nuclei (Takahashi et al. 1988a).
We have modified the original assay so that we culture 1×10^6 mouse marrow cells/ml for 6 days. […] Instead of counting of the number of differentiated osteoclasts formed, we measured the amount of TRAP liberated from osteoclasts into the culture medium using a fast, simple TRAP immunoassay (Halleen et al. 1999) presentation in the Annual Meeting of the American Society for Bone and Mineral Research, Sep. 30-Oct. 4, 1999, in St. Louis, Mo., USA.
8-10-week old mice were killed with CO2. Tibia and femora were dissected free from adhering soft tissues. The bone ends were cut off with a scalpel and the marrow was flushed with α-Minimal Essential Medium (α-MEM, Gibco BRL, Paisley, UK) supplemented with 100 IU/ml penicillin and 100 μg/ml streptomycin. A 10 ml syringe with a 27 gauge needle was used for flushing. Cells were centrifuged at 600×G for 10 minutes and the cell pellet was resuspended in -MEM containing 10% fetal calf serum. Cells were allowed to attach to plastic for 2 h at 37° C. in a 5% CO2 incubator to allow removal of monocytes and macrophages. Nonadherent cells were duly removed, and the […] bone marrow cells were cultured in 24-well plates (1×10^6 cells/well=1 ml) for 6 days. Half of the media were changed at day 3 and the treatments replaced. At the end of the culture, the plates were fixed with 2% paraformaldehyde in PBS for 20 minutes. Osteoclast formation was determined by measuring TRAP activity from the culture media using the novel TRAP immunoassay (vide infra), where we use a polyclonal TRAP antiserum prepared in rabbits against purified human bone TRAP. The TRAP antibody was bound to anti-rabbit IgG coated microtiter wells (Gibco BRL, Paisley, UK), and medium TRAP was then bound to the antibody. The activity of bound TRAP was measured in sodium acetate buffer using pNPP as substrate.
In this study, the effect of the lanthanum (III) ion on osteoclast differentiation in the presence of 1,25-dihydroxyvitamin D3 was tested. The following sample groups were included: • Baseline (including vehicle) • Control (Baseline without 1,25-dihydroxyvitamin D3) • Baseline+100 ng/ml lanthanum • Baseline+500 ng/ml lanthanum • Baseline+1000 ng/ml lanthanum • Baseline+5000 ng/ml lanthanum • Baseline+15000 ng/ml lanthanum
Six replicates were included in each group, and the test was performed twice. Baseline without 1,25-dihydroxyvitamin D3 was used as a control to show the test system allows inhibition of osteoclast differentiation to be detected.

[3] = first osteoclast differentiation assay, with 1,25-dihydroxyvitamin D3, 6 days, LA number = ng/ml lanthanum
[4] = second osteoclast differentiation assay, with 1,25-dihydroxyvitamin D3, 6 days, LA number = ng/ml lanthanum

| SMILES | Relative medium CrossLaps amounts per osteoclast, replicates 1-6 [1] | Relative medium CrossLaps amounts per osteoclast, Mean ± SD [1] | Relative medium CrossLaps amounts per osteoclasts, Mean ± SD [1] | Relative medium CrossLaps amounts per osteoclasts, replicates 1-6 [1] | Combined results on bone resorption (relative medium CrossLaps per osteoclast), Mean ± SD [1] | Effect on osteoclast differentiation, in words ([2]; LA number = ng/ml lanthanum) | Relative TRAP 5b activities, Mean ± SD [2, 3] | Relative TRAP 5b activities, Mean ± SD [2, 4] | Combined results on osteoclast differentiation (relative TRAP 5b activity), Mean ± SD ([2]; LA number = ng/ml lanthanum) | other results |
| --- | --- | --- | --- | --- | --- | --- | --- | --- | --- | --- |
| O.O.O.O.O=C([O-])[O-].O=C([O-])[O-].O=C([O-])[O-].[La+3].[La+3] [LA 1000, lanthanum carbonate tetrahydrate] | 1.14 and 1.09 and 0.89 and 1.76 and 1.07 and 1.11 | 1.18 ± 0.30 | 1.13 ± 0.51 | 0.70 and 0.59 and 1.69 and 1.40 and 1.68 and 0.73 | 1.15 ± 0.40 | decreases the formation of osteoclasts | 0.60 ± 0.25 | 0.69 ± 0.21 | 0.65 ± 0.23 (**) |  |
| O.O.O.O.O=C([O-])[O-].O=C([O-])[O-].O=C([O-])[O-].[La+3].[La+3] [LA, lanthanum carbonate tetrahydrate] |  |  |  |  |  | inhibits osteoclast differentiation |  |  |  | Effect on amount of CrossLaps released into the culture medium or on the osteoclast number, in words ([1]; 100-15000 ng/ml lanthanum): no significant effect; Bone resorption ([1]; Dose 100 ng/ml): 0; Bone resorption ([1]; Dose 500 ng/ml): 0; Bone resorption ([1]; Dose 1000 ng/ml): 0; Bone resorption ([1]; Dose 5000 ng/ml): 0; Bone resorption ([1]; Dose 15000 ng/ml): 0; Effect on bone resorption / bone resorbing activity of mature osteoclasts, in words ([1]; listed as lanthanum): Some inhibition of bone resorption; Effect on bone resorption / bone resorbing activity of mature osteoclasts, in words ([1]; listed as lanthanum (III) ion): no statistically significant effects; Osteoclast differentiation ([2]; Dose 100 ng/ml): − −; Osteoclast differentiation ([2]; Dose 500 ng/ml): 0; Osteoclast differentiation ([2]; Dose 1000 ng/ml): − −; Osteoclast differentiation ([2]; Dose 5000 ng/ml): − − −; Osteoclast differentiation ([2]; Dose 15000 ng/ml): − − − |
| O.O.O.O.O=C([O-])[O-].O=C([O-])[O-].O=C([O-])[O-].[La+3].[La+3] [LA 5000, lanthanum carbonate tetrahydrate] | 1.39 and 0.78 and 2.70 and 1.18 and 0.76 and 1.21 | 1.34 ± 0.71 | 1.20 ± 0.59 | 0.48 and 1.18 and 0.77 and 0.98 and 1.99 and 1.81 | 1.27 ± 0.63 |  | 0.44 ± 0.06(*) | 0.56 ± 0.27(*) | 0.50 ± 0.20 (***) |  |
| O.O.O.O.O=C([O-])[O-].O=C([O-])[O-].O=C([O-])[O-].[La+3].[La+3] [LA 100, lanthanum carbonate tetrahydrate] | 0.57 and 0.56 and 1.13 and 0.78 and 0.71 (2×) | 0.74 ± 0.21 | 0.74 ± 0.21 | 0.38 and 0.75 and 0.78 and 0.94 and 0.67 and 0.96 | 0.74 ± 0.20 |  | 0.87 ± 0.33 | 0.54 ± 0.15(**) | 0.70 ± 0.27 (**) | Relative TRAP 5b activities, Mean ± SD ([2]; third osteoclast differentiation assay with LA 100 (100 ng/ml lanthanum)): 0.69 ± 0.21(*) |
| O.O.O.O.O=C([O-])[O-].O=C([O-])[O-].O=C([O-])[O-].[La+3].[La+3] [LA 500, lanthanum carbonate tetrahydrate] | 1.04 and 0.58 and 1.38 and 0.75 and 0.88 and 0.63 | 0.88 ± 0.30 | 0.88 ± 0.65 | 0.50 (2×) and 2.14 and 1.03 and 0.47 and 0.63 | 0.88 ± 0.48 |  | 0.71 ± 0.22 | 1.07 ± 0.24 | 0.89 ± 0.29 | Effect on bone resorption / bone resorbing activity of mature osteoclasts, in words [1]: dose-dependent inhibition of bone resorption |
